Where two headings read alike, the source gives them in different places. Each block holds one compound with its values, some of them ahead of it.
Legend:
p-ERK = test: Human birthmark explant protocol (Example 1): p-ERK in nevus sebaceous explants; assay type: cell-based; conditions: topical gel
Source text: Study Objectives: The primary objective was to assess the efficacy of a topically-formulated compound described herein in suppressing p-ERK, a downstream biomarker of RAS/MAPK signaling in epidermal nevus and nevus sebaceous. The secondary objectives was to assess permeability (where the compound was applied topically) in birthmark explants treated with a compound described herein.
Sample Collection and Eligibility: Discarded human birthmark (epidermal nevus and nevus sebaceous) samples were obtained from the Stanford Surgery Clinic, using an approved human subjects protocol (Stanford IRB #18325). Specimens were identified under the direction of the Principal Investigator and placed in cell proliferation media (DMEM/F12 containing penicillin/streptomycin (0.1%); fungizone (40 μg/mL); B27 (without vitamin A).
Samples were primary, untreated birthmarks of at least 6 mm in size; samples were excised by a shave, punch biopsy or elliptical excision. Specimens were identified under the direction of the Principal Investigator. Specimens were chopped into 2 mm fragments and placed in 24-well plates containing cell proliferation media (DMEM/F12 containing penicillin/streptomycin (0.1%); fungizone (40 μg/mL); B27 (without vitamin A) and submerged in media with drug. For topical gel application, samples were placed in 96 well plates with epidermal surface exposed to air.
For the data provided in FIGS. 3 and 4, a gel topical gel formulation of Trametinib, Compound No. 2.003, Compound No. 4.029, or the gel topical formulation of vehicle only were topically applied to the surface of a birthmark explant at 4 hours for analysis. The gel formulation was 1% hydroxypropyl cellulose in DMSO/PEG 400 1:1 (v/v) and the tested compound was 1% by weight in the gel formulation. Samples were harvested at 4 hours for analysis. Harvested tissue was bisected and with half snap frozen and half fixed in 10% formalin and paraffin embedded for further analysis.
For the data provided in FIG. 5, a gelled topical gel formulation of Compound 2.003 or the gel topical formulation of vehicle only were topically applied to the surface of a birthmark explant at 4 hours for analysis. The gel formulation was 1.5% hydroxypropyl cellulose in the base formulation and the tested compound was 0.01% by weight of the base formulation. The Compositions of the base formulation are listed below. Samples were harvested at 4 hours for analysis. Harvested tissue was bisected and with half snap frozen and half fixed in 10% formalin and paraffin embedded for further analysis.
For the data provided in FIG. 6, three gelled topical gel formulations of Compound 2.003 at different concentrations or the gel topical formulation of vehicle only were topically applied to the surface of a birthmark explant at 4 hours for analysis. […]

[1] = systemic exposure, background statement; cited from earlier work
MEK1 = biological target: T1, MEK1 (Homo sapiens, UniProt Q02750); test: MEK Inhibition Assay-1 (Example 2): 33P-ATP, P81 filter-binding kinase assay; conditions: read-out: Assay 1: biochemical MEK IC50
T1 construct: N-terminal His-tagged recombinant human full length protein; purchased Invitrogen PV3303; host or cells: insect cells
T1 sequence (Q02750 whole entry): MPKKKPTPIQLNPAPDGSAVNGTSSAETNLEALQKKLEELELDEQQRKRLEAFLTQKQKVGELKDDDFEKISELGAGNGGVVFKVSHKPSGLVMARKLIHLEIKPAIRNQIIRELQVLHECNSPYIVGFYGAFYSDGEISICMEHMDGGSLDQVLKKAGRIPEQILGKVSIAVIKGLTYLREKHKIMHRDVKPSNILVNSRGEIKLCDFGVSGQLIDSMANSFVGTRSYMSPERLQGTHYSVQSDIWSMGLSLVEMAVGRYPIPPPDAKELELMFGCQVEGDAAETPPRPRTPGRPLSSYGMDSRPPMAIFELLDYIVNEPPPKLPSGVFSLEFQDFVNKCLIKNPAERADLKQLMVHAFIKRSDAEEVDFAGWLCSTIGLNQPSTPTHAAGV
Experimental: The following procedure can be used to measure biochemical activity. MEK1 inhibitory activity of compounds were tested using the following procedure. […] Nat Biotechnoi 2011, 29(11), 1039-45.
• Reaction buffer: 20 mM Hepes (pH 7.5), 10 mM MgCl2, 1 mM EGTA, 0.02% Brij35, 0.02 mg/mL BSA, 0.1 mM Na3VO4, 2 mM DTT, 1% DMSO • Enzyme: MEK1, Invitrogen cat #PV3303 • N-terminal His-tagged recombinant human full length protein, expressed in insect cells. Activated in vitro by RAF1. MW=49.2 kDa, GenBank Accession No. NP_002746. • Substrate: 5 μM ERK2 (K52R), • Kinase-dead mutant, (GenBank Accession No. NM_0011949), aa2-358 with N-terminal His6 tag, MW=43.63 kDa, expressed in E. coli.
The substrate was prepared in freshly prepared Reaction Buffer. The kinase was delivered into the substrate solution and gently mixed. Test compounds were delivered in 100% DMSO into the kinase reaction mixture by Acoustic technology (Echo550; nanoliter range), and incubated for 20 min at room temperature. ^33P-ATP was delivered into the reaction mixture to initiate the reaction. The reaction mixture was incubated for 2 hours at room temperature. Kinase activity was detected by P81 filter-binding method.

MAP2K1 (MEK1) = biological target: T2, MAP2K1 (MEK1) (Homo sapiens, UniProt Q02750); test: MEK Inhibition Assay-2 (Example 3): Z'-LYTE biochemical assay; conditions: Table 6; procedure of Example 3; read-out: IC50 against MEK1
T2 construct: purchased ThermoFisher
T2 sequence (Q02750 whole entry): as above
Experimental: MEK1 inhibitory activity of compounds were tested using the following procedure (protocol available at thermofisher.com/content/dam/LifeTech/migration/files/drug-discovery/pdfs.par.60256.file.dat/20130430%20ssbk%20customer%20protocol%20and%20assay%20conditions.pdf). The Z′-LYTE biochemical assay (ThermoFisher) employs a fluorescence-based, coupled-enzyme format and is based on the differential sensitivity of phosphorylated and non-phosphorylated peptides to proteolytic cleavage.
Test compounds in 100% DMSO were screened in 1% DMSO (final) in the well. For 10 point titrations, 3-fold serial dilutions are conducted from the starting concentration of 30 μM.
After the 1 hour incubation, 5 μL of a 1:1024 dilution of Development Reagent A (available from Invitrogen, catalog no. PV3295) was added.
ATP solutions were diluted to a 4× working concentration in Kinase Buffer (50 mM HEPES pH 7.5, 0.01% BRIJ-35, 10 mM MgCl2, 1 mM EGTA). ATP Km apparent was previously determined using a Z′-LYTE assay. The Development Reagent was diluted in Development Buffer (available from Invitrogen, catalog no. P3127).
Assay Protocol: 2.5 μL of 4× test compound or 100 nL of 100× Test Compound plus 2.4 μL Kinase Buffer, 5 μL of the 2× Peptide/Kinase Mixture, 2.5 μL of 4×ATP Solution were added to the plates and placed on a shake plate for 30-seconds. The kinase reaction was allowed to proceed for 60-minute at room temperature, before 5 μL of Development Reagent Solution was added, and the mixture agitated for 30-seconds on a shake plate. The mixture was incubated for 60-minute at room temperature. Fluorescence was measured using a plate reader and the data were analyzed.
This control yielded 100% cleaved peptide in the Development Reaction. The 100% Phosphorylation Control, which consisted of a synthetically phosphorylated peptide of the same sequence as the peptide substrate, was designed to allow for the calculation of percent phosphorylation. This control yielded a very low percentage of cleaved peptide in the Development Reaction. The 0% Phosphorylation and 100% Phosphorylation Controls allow for the calculation of the percent phosphorylation achieved in a specific reaction well.
The minimum emission ratio in a screen was established by the 0% Inhibition Control, which contained active kinase. This control was designed to produce a 10-50% phosphorylated peptide in the Kinase Reaction. Cascade assays may produce up to 70% phosphorylated peptide.
A known inhibitor control standard curve, 10 point titration, was run for each individual kinase on the same plate as the kinase to ensure the kinase was inhibited within an expected IC50 range previously determined.
The following controls are prepared for each concentration of Test Compound assayed. […] The expected value for a non-interfering compound should be 100%. Any value outside of 90% to 110% was flagged. […] The expected value for a non-fluorescence compound should be 0%. Any value >20% was flagged.
The data in Table A was calculated. XLfit from IDBS was used. The dose response curve was curve fit to model number 205 (sigmoidal dose-response model).

A375 cells = test: Cell-Based Assay-2 (Example 5): Cell Titer-Glo viability, A375 (BRAF) GI50; conditions: Homo sapiens, A-375; Table 8, compounds of formula (II); 72 hours
Experimental: (§1) Alternatively, the following procedure can be used to measure cell-based activity. Test compounds were dissolved in DMSO in 10 mM stock. Cell Titer-Glo® 2.0 Luminescent cell viability assay reagent was purchased from Promega (Madison, Wis.). A375 and HCT116 cell lines were purchased from American Type Culture Collection (Manassas, Va.). For A375 cells, cell culture media was DMEM+10% FBS. For HCT116 cells, cell culture media was McCoy's 5A+10% FBS. All media were supplemented with 100 μg/mL of penicillin, and 100 μg/mL of streptomycin. Cultures were maintained at 37° C. in a humidified atmosphere of 5% CO2 and 95% air.
(§2) Test compounds were diluted in DMSO solution with 10-dose and 3-fold dilutions in a source plate starting at 10 mM. […] Luminescence was recorded by Envision 2104 Multilabel Reader (PerkinElmer, Santa Clara, Calif.). The number of viable cells in culture was determined based on quantitation of the ATP present in each culture well. […] Luminescence was recorded by Envision 2104 Multilabel Reader (PerkinElmer, Santa Clara, Calif.). The number of viable cells in culture was determined based on quantitation of the ATP present in each culture well. […] All parameters in the equation were calculated by GraphPad Prism 4 program. […] Accordingly, GI50 is the value of 10^X, where X was calculated by the Curve Fitting Equation when Y=50 using Excel.

HCT116 cells = test: Cell-Based Assay-2 (Example 5): Cell Titer-Glo viability, HCT116 (Kras) GI50; conditions: Homo sapiens, HCT-116; Table 8, compounds of formula (II); 72 hours; read-out: Assay 3: HCT116 (Kras) GI50
Experimental: as §1, §2

[2] = FIGS. 3 and 4, 1% by weight compound, 1% hydroxypropyl cellulose in DMSO/PEG 400 1:1, 4 hours

SMILES: Cn1c(Nc2ccc(I)cc2F)c(C(=O)NOCCO)c2cccnc21 [Compound 2.003]
suppression of p-ERK in human nevus sebaceous explants (p-ERK; FIG. 5, 0.01% by weight compound, 1.5% hydroxypropyl cellulose in base formulation, 4 hours): suppression of p-ERK
dose response in suppression of p-ERK in human nevus sebaceous explants (p-ERK; FIG. 6, 0.01%, 0.15% or 1.00% by weight compound, 4 hours): dose response
suppression of p-ERK in human nevus sebaceous explants (p-ERK; [2]): suppression of p-ERK

SMILES: O=C(NOC[C@H](O)CO)c1ccc(F)c(F)c1Nc1ccc(I)cc1F [PD0325901]
side effects of a clinically-tested MEK inhibitor [1]: neurological side effects associated with ataxia, confusion, and syncope

IC50 (MEK1; Table 10, compounds of formula (IV), Example 2): ≤ 0.5 µM
IC50 (MAP2K1 (MEK1)): ≤ 0.15 µM
SMILES: O=C1CCCc2c1sc(Nc1ccc(I)cc1F)c2C(=O)NOCCO [Compound 4.029]
suppression of p-ERK in human nevus sebaceous explants (p-ERK; [2]): suppression of p-ERK

IC50 (MEK1; Table 8, compounds of formula (II), tested by Example 2): 0.371 µM
GI50 (A375 cells): 0.081 µM
GI50 (HCT116 cells): 0.448 µM
SMILES: Cn1c(Nc2ccc(I)cc2F)c(C(=O)NOC[C@@H](O)CO)c2cccnc21 [Compound 2.006]

Reference: patent US20230013227A1, “ARYL-ANILINE AND HETEROARYL-ANILINE COMPOUNDS FOR TREATMENT OF BIRTHMARKS” (NFlection Therapeutics, Inc., priority 2018, published 2023)
